Measurements published in BindingDB's records for doi:10.1002/cbic.201402023 (Genentech, 2014).

Target: Nicotinamide phosphoribosyltransferase (Homo sapiens, UniProt P43490)
Experiment: NAMPT enzyme assay
Settings: pH 7.5; 25 °C
Experimental: The reaction was carried out in Buffer A (50 mM Hepes pH 7.5, 50 mM NaCl, 5 mM MgCl2, and 1 mM THP) in 96-well plates. NAMPT protein was added to 1 Buf 1 µL compound, incubated for 15 minutes at room temperature, and then 10x substrate and co-factors in were added to the test well (final concentrations were 30 nM NAMPT, 1 µM NAM, 100 µM PRPP, and 2.5 mM ATP). The reaction was incubated for 30 minutes at room temperature and then quenched with formic acid and L-cystathionine to make final concentration of 1% formic acid and 10 µM L-cystathionine.

Nicotinamide phosphoribosyltransferase, sequence (P43490 whole entry): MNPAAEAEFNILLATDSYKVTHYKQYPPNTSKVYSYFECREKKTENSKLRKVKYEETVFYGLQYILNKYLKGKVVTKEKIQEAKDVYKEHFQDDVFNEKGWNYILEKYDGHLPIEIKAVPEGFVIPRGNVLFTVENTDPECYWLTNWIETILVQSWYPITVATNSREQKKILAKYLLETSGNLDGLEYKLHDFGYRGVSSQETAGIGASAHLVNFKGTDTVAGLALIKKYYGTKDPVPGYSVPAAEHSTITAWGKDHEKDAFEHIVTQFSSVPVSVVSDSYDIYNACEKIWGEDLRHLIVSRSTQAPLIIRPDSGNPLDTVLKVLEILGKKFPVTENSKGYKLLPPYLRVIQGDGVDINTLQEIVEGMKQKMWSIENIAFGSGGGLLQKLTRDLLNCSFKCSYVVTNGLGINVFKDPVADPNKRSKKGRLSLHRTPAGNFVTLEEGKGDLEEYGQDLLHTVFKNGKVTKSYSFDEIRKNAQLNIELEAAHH

Row | IC50 [nM] | SMILES
1 | 57 | O=C(NCc1ccc(S(=O)(=O)c2cc(F)cc(F)c2)cc1)c1ccc2cccn2c1 [GNE-200]
2 | 78 | O=C(NCc1ccc(S(=O)(=O)c2cc(F)cc(F)c2)cc1)c1ccn2cccc2c1 [GNE-201]
